Counter-ions that a name gives are not always drawn.

Data set [1] relates to mice. The following applies: comparison anesthetics, disclosed in Japanese Patent Application Laid Open No. 50-154410; cited from earlier work.
The test system of data set [2] is mice. The following applies: comparison anesthetics, disclosed in Japanese Patent Application Laid Open No. 50-154410, cited from earlier work; for T. I.(mouse): LD50/HD50.

Turning to `CCOC(=O)CC1c2cc(C)c(C)cc2C(=S)N1c1cccnc1` (centres unmarked), the melting point – broadly, the temperature, or range, at which the solid turns liquid – lay in the range of 158 to 158.5 °C. The compound `Cc1cc2c(cc1C)C(C(=O)O)N(c1cccc(F)c1)C2=O` (centres unmarked) (as salt: hydrochloride) gave a melting point of 152 to 157.5 °C. For the compound `Cc1cc2c(cc1C)C(OCC(=O)O)N(c1cccc(F)c1)C2=O` (centres unmarked) (as salt: hydrochloride), the melting point lay in the range of 145 to 146 °C. Turning to `Cc1cc2c(cc1C)C(OCC(=O)N1CCN(C)CC1)N(c1cccc(F)c1)C2=O` (centres unmarked) (as salt: hydrochloride), the melting point was in the range of 138 to 144.5 °C.

In the case of `CCCOC(=O)CC1c2cc(C)c(C)cc2C(=O)N1c1cccnc1` (centres unmarked) (as salt: hydrochloride), the melting point lay within 201.5 to 208.5 °C. Regarding `CC(C)c1cccc(C(C)C)c1O` [Propofol, 2,6-diisopropylphenol], the HD50 in the data set with mice [1] is reported as 13.5 mg/kg. Moreover, in the data set on mice [2], the “T. I.(mouse)” value was 4.14 and the LD50 (commonly the dose at which mortality reaches 50%) was 56 mg/kg. Take `CCCC(C)C1(CC)C(=O)NC(=S)NC1=O` (centres unmarked) [Thiopental Sodium, thiopental sodium]: the HD50 with mice [1] was 23.5 mg/kg. For the same compound, in the data set with mice [2], the “T. I.(mouse)” value is given as 4.26 and the LD50 was 100 mg/kg.
